Key:
[1] = target: Acetylcholinesterase (Electrophorus electricus) (UniProt O42275); test: Inhibition of electric eel AChE at 0.1 mM using acetylthiocholine iodide as substrate preincubated for 15 mins followed by substrate addition by spectrophotometric method relative to control
[2] = target: Cholinesterase (Equus caballus) (UniProt P81908); test: Inhibition of horse serum BChE at 0.1 mM using butyrylcholine chloride as substrate preincubated for 15 mins followed by substrate addition by spectrophotometric method relative to control
Chain of Cholinesterase (Equus caballus) (P81908 whole entry): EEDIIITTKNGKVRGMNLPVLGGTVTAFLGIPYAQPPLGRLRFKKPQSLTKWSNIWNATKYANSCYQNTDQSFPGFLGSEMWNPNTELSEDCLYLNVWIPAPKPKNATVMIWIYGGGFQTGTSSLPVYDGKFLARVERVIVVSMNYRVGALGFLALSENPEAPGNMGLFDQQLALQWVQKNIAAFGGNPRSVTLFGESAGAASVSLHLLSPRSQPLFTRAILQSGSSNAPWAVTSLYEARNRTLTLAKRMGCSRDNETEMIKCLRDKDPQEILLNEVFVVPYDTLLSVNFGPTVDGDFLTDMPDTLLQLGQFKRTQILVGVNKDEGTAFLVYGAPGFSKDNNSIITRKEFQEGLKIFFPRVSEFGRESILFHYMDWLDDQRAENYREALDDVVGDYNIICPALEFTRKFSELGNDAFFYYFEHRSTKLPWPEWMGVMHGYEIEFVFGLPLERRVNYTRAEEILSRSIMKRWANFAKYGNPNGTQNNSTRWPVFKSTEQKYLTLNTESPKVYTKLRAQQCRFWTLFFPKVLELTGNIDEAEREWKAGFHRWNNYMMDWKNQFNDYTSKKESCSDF

[3] = target: Acetylcholinesterase (Electrophorus electricus, UniProt O42275); test: Inhibition of electric eel AChE using acetylthiocholine iodide as substrate preincubated for 15 mins followed by substrate addition by spectrophotometric method
Chain of Acetylcholinesterase (O42275 whole entry): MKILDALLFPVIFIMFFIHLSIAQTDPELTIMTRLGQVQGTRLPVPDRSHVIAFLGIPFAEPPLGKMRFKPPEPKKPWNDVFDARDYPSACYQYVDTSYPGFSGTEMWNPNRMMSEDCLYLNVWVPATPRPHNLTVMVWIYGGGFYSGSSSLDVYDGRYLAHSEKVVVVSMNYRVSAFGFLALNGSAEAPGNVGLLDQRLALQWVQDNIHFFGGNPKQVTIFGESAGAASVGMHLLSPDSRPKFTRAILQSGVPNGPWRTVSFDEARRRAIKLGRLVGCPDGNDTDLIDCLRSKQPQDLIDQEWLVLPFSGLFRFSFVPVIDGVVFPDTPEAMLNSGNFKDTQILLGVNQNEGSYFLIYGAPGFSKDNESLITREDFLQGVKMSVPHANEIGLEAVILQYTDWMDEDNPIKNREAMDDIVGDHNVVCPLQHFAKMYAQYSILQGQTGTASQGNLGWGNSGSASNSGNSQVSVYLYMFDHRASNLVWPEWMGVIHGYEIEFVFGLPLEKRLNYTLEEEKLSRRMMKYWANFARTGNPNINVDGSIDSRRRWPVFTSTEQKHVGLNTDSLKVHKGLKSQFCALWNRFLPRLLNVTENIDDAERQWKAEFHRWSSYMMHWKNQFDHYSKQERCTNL

[4] = target: Cholinesterase (Equus caballus, UniProt P81908); test: Inhibition of horse serum BChE using butyrylcholine chloride as substrate preincubated for 15 mins followed by substrate addition by spectrophotometric method
Chain of Cholinesterase (P81908 whole entry): as the sequence (P81908 whole entry) above

[5] = Antioxidant activity assessed as inhibition of DPPH free radical at 50 uM after 30 mins relative to control; type: functional
[6] = Antioxidant activity assessed as inhibition of DPPH free radical at 75 uM after 30 mins relative to control; type: functional
[7] = Antioxidant activity assessed as inhibition of DPPH free radical at 100 uM after 30 mins relative to control; type: functional
[8] = Antioxidant activity assessed as inhibition of DPPH free radical at 125 uM after 30 mins relative to control; type: functional
[9] = Antioxidant activity assessed as inhibition of DPPH free radical after 30 mins; type: functional

Chain of Acetylcholinesterase (Electrophorus electricus) (O42275 24-633 limits assumed): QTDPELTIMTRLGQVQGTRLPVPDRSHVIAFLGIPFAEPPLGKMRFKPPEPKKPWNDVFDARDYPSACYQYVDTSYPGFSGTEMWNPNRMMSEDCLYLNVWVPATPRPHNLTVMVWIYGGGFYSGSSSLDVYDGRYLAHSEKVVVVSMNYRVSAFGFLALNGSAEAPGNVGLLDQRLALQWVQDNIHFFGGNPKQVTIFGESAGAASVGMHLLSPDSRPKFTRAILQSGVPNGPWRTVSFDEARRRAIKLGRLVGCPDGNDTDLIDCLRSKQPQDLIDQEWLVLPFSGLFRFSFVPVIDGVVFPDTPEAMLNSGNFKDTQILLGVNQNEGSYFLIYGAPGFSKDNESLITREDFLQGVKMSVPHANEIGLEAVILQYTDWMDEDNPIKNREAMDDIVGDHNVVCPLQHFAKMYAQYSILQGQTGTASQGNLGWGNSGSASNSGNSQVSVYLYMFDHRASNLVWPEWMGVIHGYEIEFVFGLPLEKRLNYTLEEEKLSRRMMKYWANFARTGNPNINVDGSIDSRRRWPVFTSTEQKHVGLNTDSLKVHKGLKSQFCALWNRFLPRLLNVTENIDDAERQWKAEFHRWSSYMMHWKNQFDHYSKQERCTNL

| Structure (SMILES) | inhibition [1] | inhibition [2] | IC50 [3] | IC50 [4] | inhibition [5] | inhibition [6] | inhibition [7] | inhibition [8] | inhibition [9] |
| --- | --- | --- | --- | --- | --- | --- | --- | --- | --- |
| C=C1CC23C[C@H]4[C@@H]5[C@@]6(C)CC[C@H](O)[C@]57C([C@@H]2[C@@H](O)[C@H]1[C@@H](O)[C@@H]37)N4C6 | > 50% | > 50% | 6.5 µM | 9.3 µM | 22.5% | 27% | 60.3% | 79.6% | Dose-dependent effect |
| O=C1O[C@H]([C@@H](O)CO)C(O)=C1O | – | – | – | – | 75% | 85% | 90% | 96% | – |
| C=C1[C@H]2CC[C@@]3(C(=O)C[C@@H]4[C@@]5(C)CCC[C@@]4(CN(CCO)C5)[C@@H]3C2)[C@@H]1O | > 50% | > 50% | 14.6 µM | 18.1 µM | 20% | 31.2% | 40% | 45% | Dose-dependent effect |
| CCN1C[C@]2(C)CC[C@H](OC)[C@]34C1[C@@](C)([C@@H](OC)[C@H]23)[C@@]1(O)CC[C@H]2C[C@@H]4C1(O)C(=O)O2 | > 50% | > 50% | 5.4 µM | 8.6 µM | 22.2% | 28.3% | 33.2% | 38.4% | Dose-dependent effect |
| C=C1[C@H]2C[C@H]3C4N5C[C@]6(C)CCC[C@@]47[C@@H]6[C@@]5(O)CC3([C@@H]1O)[C@@H]7C2 | > 50% | > 50% | 12.8 µM | 16.2 µM | 17% | 25% | 36% | 41.2% | Dose-dependent effect |
| C=C1[C@H]2CC[C@@]3(CC[C@H]4[C@]5(CCC[C@]4(C)C4OCCN4C5)[C@@H]3C2)[C@@H]1O (stereo partly specified) | > 50% | > 50% | 8.4 µM | 13.1 µM | 11.8% | 23.3% | 49.4% | 60% | Dose-dependent effect |
| CCN1C[C@]2(C)CC[C@H](OC)[C@]34C1[C@H]([C@@H](O)[C@H]23)[C@@]1(O)CC[C@H]2C[C@@H]4[C@@H]1C(=O)O2 | > 50% | > 50% | 6.5 µM | 10.4 µM | 19.3% | 39.3% | 47.3% | 52.4% | Dose-dependent effect |
| C=C1C[C@]23C[C@@H]4[C@@H]5[C@@]6(C)CC(=O)C[C@]57C([C@@H]2[C@@H](O)[C@H]1[C@@H](O)[C@@H]37)N4C6 | > 50% | > 50% | 10.1 µM | 15.6 µM | 12.1% | 32% | 40% | 65.5% | Dose-dependent effect |
| C=C1[C@H]2CC[C@@]3(CC[C@@H]4[C@]5(C)CCC[C@]4(CN4CCO[C@@H]45)[C@@H]3C2)[C@@H]1O | > 50% | > 50% | 10.3 µM | 14.7 µM | 12.3% | 30.1% | 42.1% | 55.2% | Dose-dependent effect |
